From PubChem BioAssay (NCI)
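All cell lines were grown in 96-well plates and treated with compound for 48 hours. The concentration for 50% growth inhibition is given as GI50. The concentration for full growth arrest is given as TGI.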

How the values were obtained:
Assay in all cases: inhibition of tumour cell growth, NCI panel, 48 h
SW-620 colon = test system: SW-620 colon
SN12C renal = test system: SN12C renal
IGROV1 ovarian = test system: IGROV1 ovarian
HCT-116 colon = test system: HCT-116 colon
SF-295 CNS = test system: SF-295 CNS
M14 melanoma = test system: M14 melanoma
NCI-H460 lung = test system: NCI-H460 lung
DU-145 prostate = test system: DU-145 prostate
RXF 393 renal = test system: RXF 393 renal
U251 CNS = test system: U251 CNS

Row | SMILES | TGI (SW-620 colon) [µM] | TGI (SN12C renal) [µM] | TGI (IGROV1 ovarian) [µM] | TGI (HCT-116 colon) [µM] | TGI (SF-295 CNS) [µM] | TGI (M14 melanoma) [µM] | GI50 (SW-620 colon) [µM] | GI50 (SN12C renal) [µM] | GI50 (NCI-H460 lung) [µM] | TGI (NCI-H460 lung) [µM] | GI50 (IGROV1 ovarian) [µM] | GI50 (HCT-116 colon) [µM] | GI50 (SF-295 CNS) [µM] | GI50 (DU-145 prostate) [µM] | TGI (DU-145 prostate) [µM] | GI50 (RXF 393 renal) [µM] | TGI (RXF 393 renal) [µM] | GI50 (M14 melanoma) [µM] | TGI (U251 CNS) [µM] | GI50 (U251 CNS) [µM]
1 | O=C(C=C1SCCS1)/C=C\c1ccc(Cl)cc1 | > 100 | > 100 | > 100 | > 100 | > 100 | > 100 |  |  |  |  |  |  |  |  |  |  |  |  |  | 
2 | COc1ccc2sc3cccc(NCCN(C)C)c3c(=O)c2c1 | 5.57 | 13.4 | 11.6 | 9.69 | 17.5 | 4.1 | 2.07 | 3.36 | 2.57 | 6.22 | 3.35 | 2.78 | 4.61 | 4.02 | 13.5 | 2.67 | 9.76 | 2 |  | 
3 | COc1c(C)cc(O)cc1C=O | > 100 | > 100 | > 100 |  | > 100 | > 100 |  |  |  | > 100 |  |  |  |  |  |  | > 100 |  | > 100 | 
4 | COC(=O)C(=O)C(C(=O)C(=O)Nc1cccc(C(C)=O)c1)c1nc2ccc([N+](=O)[O-])cc2[nH]c1=O (stereo unspecified) | > 100 | > 100 | > 100 | > 100 | > 100 | > 100 |  |  |  | > 100 |  |  |  |  |  |  | > 100 |  | > 100 | 
5 | COc1cccc2ccc(C(=O)c3ccccc3)nc12 | > 100 | > 100 | > 100 | > 100 | > 100 | > 100 |  |  |  |  |  |  |  |  |  |  |  |  | > 100 | 
6 | NCCCNc1nc2ccccc2c2c(=O)c3cc(F)cc(F)c3sc12 | 3.19 | 3.27 |  | 3.28 | 4.06 | 3.3 | 1.64 | 1.68 | 1.58 | 3.14 |  | 1.67 | 1.99 | 1.71 | 3.19 | 1.42 | 2.97 | 1.79 |  | 
7 | COc1c(O)c(OC)c2oc(-c3ccc(O)c(O)c3)c(OC)c(=O)c2c1O | > 100 | > 100 | 25.7 | > 100 | > 100 | 50.7 |  |  |  | > 100 |  |  |  |  | 98.8 |  |  |  | 78.1 | 
8 | Cc1ccc(S(=O)(=O)c2ccc(NC(=O)SCCC(=O)O)cc2)cc1 | > 100 | > 100 | > 100 | > 100 | > 100 | > 100 |  |  |  | > 100 |  |  |  |  |  |  | > 100 |  | > 100 | 
9 | C#CCNC(=O)N(CC#C)N=O | > 100 | > 100 | > 100 | > 100 | > 100 | > 100 |  |  |  | > 100 |  |  |  |  |  |  | > 100 |  | > 100 | 
10 | O=C(COc1ccc(/C=C2\COc3ccccc3C2=O)cc1)Nc1nccs1 | 10.2 | 25.7 |  | 12.8 | 12.8 | 20 | 3.22 | 5.69 | 18.6 | 64.6 |  | 3.75 | 3.1 | 4.8 | 14.8 |  |  | 6.71 | 19.1 | 6.29
11 | CC(C)(C)OC(=O)N[C@H]1CC(O)c2ccccc2N(CC(=O)O)C1=O (stereo partly specified) | > 100 | > 100 | > 100 | > 100 | > 100 | > 100 |  |  |  | > 100 |  |  |  |  |  |  | > 100 |  |  | 
12 | N.N.NCCCCCN.O=C([O-])CCl.O=C([O-])CCl.O=C([O-])CCl.O=C([O-])CCl.[Pt+4].[Pt+4] | > 100 | 1.69 | 67.3 | > 100 | 86 | 33.5 | 4.58 | 0.161 | 0.316 | 18.6 | 18 | 10.8 | 1.84 |  |  | 2.87 | 21.1 | 9.28 | 40.6 | 5.06
13 | CCCCCCCCOCC(O)COC(C)C (stereo unspecified) | > 100 | 73.1 | > 100 | > 100 | > 100 | > 100 |  |  |  | > 100 |  |  |  |  |  |  |  |  | > 100 | 
14 | O=S(=O)([O-])c1ccc(N=Cc2ccccc2[O-])cc1.O=S(=O)([O-])c1ccc(N=Cc2ccccc2[O-])cc1.[O]=[U+2]=[O] | > 100 | > 100 | > 100 | > 100 | > 100 | > 100 | > 100 | > 100 | > 100 | > 100 | 83.8 | 20 | > 100 |  |  | 81.7 | > 100 | > 100 | > 100 | 94.7
15 | CC(=O)Nc1ccc(/C=c2\sc3nnc(CCC(=O)Nc4ccccc4Cl)n3c2=O)cc1 | 87.5 | > 100 | > 100 | > 100 | 38.9 | 35.8 |  |  |  | > 10 |  |  |  |  |  |  | 58.7 |  | 31.8 | 
16 | COC(=O)/C(=N\NC(N)=O)C(C(=O)C(=O)Nc1ccccc1OC)c1nc2ccc([N+](=O)[O-])cc2[nH]c1=O (stereo unspecified) | > 100 | > 100 | > 100 | > 100 | > 100 | > 100 |  |  |  | > 100 |  |  |  |  |  |  | > 100 |  | > 100 | 
17 | C=C1CC2CCCC12C=O (stereo unspecified) | > 10 | > 10 | > 10 | > 10 | > 10 | > 10 |  |  |  |  |  |  |  |  | > 10 |  |  |  | > 10 | 
18 | COc1ccccc1NC(=O)C1=C(C)NC(C)=C(C(=O)Nc2ccccc2OC)C1C1=CC=COC1 | 22.1 | > 100 | > 100 | 17.2 | 40.7 | 22.5 |  |  |  | 16.3 |  |  |  |  |  |  |  |  | 77.1 | 
19 | COc1ccc2c(c1)[n+]([O-])c(-c1ccc([N+](=O)[O-])cc1)c(N)[n+]2[O-] | > 100 | > 100 | > 100 | > 100 | > 100 | > 100 |  |  |  | > 100 |  |  |  |  |  |  | > 100 |  | > 100 | 
20 | COc1ccc(OC(C)=O)c2c1CCC=CC2=O | 28.8 | 31 | 34.4 | 34.3 | 35.4 | 19.7 |  |  |  | 34.7 |  |  |  |  |  |  | 21.6 |  | 32.2 | 
